Results reported in patent publication US20250170139A1, “AZASETRON FOR THE TREATMENT OF SUDDEN SENSORINEURAL HEARING LOSS” (SENSORION, priority 2022, published 2025).

Tests used:
[1] = system: subjects suffering from sudden sensorineural hearing loss (SSNHL); test: Phase 2b/3 study: speech discrimination test, change in word recognition score (WRS) from baseline; assay type: in vivo, human; conditions: SENS-401 29 mg/BID
Description: (§1) A randomized, double-blind, placebo-controlled, parallel-group phase 2b/3 study was conducted with the aim to assess efficacy and safety of (R)-azasetron in subjects suffering from sudden sensorineural hearing loss. Treatment was administered for 4 weeks (i.e., 28 days) and the study was concluded with an 8-week follow-up at day 84.
(§2) Subjects were included in the study if they presented with sudden sensorineural hearing loss (SSNHL) and met the following criteria: • male or female, • aged at least 18 years old, • subjects with unilateral idiopathic SSNHL or unilateral/bilateral acute acoustic trauma leading to SSNHL defined by both: • at least one hearing threshold of 50 dB or more amongst the 3 most affected contiguous frequencies on pure tone audiometric air conduction testing performed 24 hours or less prior to first study drug intake, and • mean hearing loss of 30 dB or more, averaged across the 3 most affected contiguous frequencies on pure tone audiometric air conduction testing performed 24 hours or less prior to first study treatment, compared with the unaffected contralateral ear or reference values from a pre-existing audiogram (dated less than 2 years) • subjects with sudden hearing loss with onset within 96 hours prior to first study drug intake.
134 subjects were assessed for eligibility according to the criteria listed above. 115 subjects were randomized with a ratio 1:1:1 in the three following groups (i.e., treatment arms): • 38 subjects were included in the group administered for 28 days (i.e., 4 weeks) with placebo, • 38 subjects were included in the group administered for 28 days (i.e., 4 weeks) with a “low” dose of (R)-azasetron, defined as a total daily dose of 58 mg of (R)-azasetron (corresponding to a daily dose of 40 mg free base equivalent); and • 39 subjects were included in the group administered for 28 days (i.e., 4 weeks) with a “high” dose of (R)-azasetron, defined as a total daily dose of 87 mg of (R)-azasetron (corresponding to a daily dose of 60 mg free base equivalent).
Subjects were administered placebo or (R)-azasetron (also designated as SENS-401) for 28 days (i.e., 4 weeks). (R)-azasetron was administered orally twice a day either at a dose of 29 mg/BID (bis in die) or at a dose of 43.5 mg/BID (corresponding to a total daily dose of 40 mg and 60 mg free base equivalent, respectively).
Subjects included in the study were monitored with a first visit at day −4 to day 0 (screening), followed by a visit at day 1 (D1-randomization and inclusion day), day 7 (D7, ±2 days), day 14 (D14, ±2 days), day 28 (D28±3 days−end of treatment), and day 84 (D84±3 days-follow-up visit marking the end of study). Monitoring included audiometric tests (PTA), speech audiometry, numerical rating scales and questionnaires. Additionally, subjects included in the study were closely monitored for adverse events throughout the study.
Additionally, the efficacy of SENS-401 was also assessed by conducting speech audiometry, in particular by conducting a speech discrimination test (also known as word recognition test) to determine a word recognition score (WRS).
Speech discrimination or word recognition is the ability to repeat correctly an open set of monosyllabic words at supra threshold intensity (for example at 60 dB or at 80 dB). The word recognition score (WRS) is thus the percentage of test words correctly repeated by the subject. The test is administered in a quiet room without any competing noise. […]

[2] = system: subjects suffering from sudden sensorineural hearing loss (SSNHL); test: Phase 2b/3 study: change in pure tone audiometry (PTA) from baseline in affected ear; assay type: in vivo, human
Description: as §1, §2
As indicated above, hearing loss was determined with pure tone audiometry (PTA) or pure tone audiometric testing, in particular with pure tone audiometric air conduction testing.
In the present study, pure tone air- and bone-conduction hearing thresholds were determined for each ear (best ear at first) at 0.25, 0.5, 1, 2, 3, 4, 6, and 8 kHz for air conduction and at 0.5, 1, 2, 3, 4 kHz for bone conduction, using the descending method of limits (modified Hughson Westlake procedure as follows: initial descent towards threshold is accomplished in 10-dB steps. Beginning with the first nonresponse, level is increased by 5-dB for each non-response and decreased by 10-dB after each correct detection response). The hearing threshold was defined as the lowest audible level, measured twice out of three presentations to the subject.
The baseline pure tone audiometry test was defined as the last test performed at site within 24 hours prior to the first study drug administration. The PTA was expressed as the average of the hearing threshold (in dB) of the 3 most affected contiguous test frequencies (air conduction). Therefore, a higher PTA corresponds to a higher hearing threshold and thus to a poorer hearing. Conversely, a lower PTA corresponds to a lower hearing threshold and thus to a better hearing.
The hearing loss was defined as the difference between the PTA expressed as the average of the hearing threshold (in dB) at the 3 most affected contiguous test frequencies (air pure tone average) and the corresponding PTA expressed as the average hearing threshold of the contralateral ear or values from a pre-existing audiogram (dated less than 2 years) for the same frequencies (mandatory for bilateral acute acoustic trauma). The contiguous frequencies used to determine the PTA at baseline remained fixed for all subsequent evaluations. In case of bilateral acute acoustic trauma leading to sudden sensorineural hearing loss, the most affected ear according to the inclusion criteria was considered for the analysis. If both ears were equally affected, the right ear was considered.
134 subjects were assessed for eligibility according to the criteria listed above. […]

[3] = day 28, SENS-401 high 43.5 mg/BID, subpopulation PTA at baseline ≥80 dB (idiopathic SSNHL, corticoids)
[4] = day 28, SENS-401 high 43.5 mg/BID, subpopulation PTA at baseline ≥90 dB (idiopathic SSNHL, corticoids)
[5] = day 28, SENS-401 low 29 mg/BID (40 mg/day free base equivalent), ITT overall study population, idiopathic SSNHL who received corticoids
[6] = day 28, SENS-401 low 29 mg/BID, subpopulation PTA at baseline ≥80 dB & initial frequency range ≤2000 Hz (idiopathic SSNHL, corticoids)
[7] = day 84, SENS-401 high 43.5 mg/BID (60 mg/day free base equivalent), overall study population, idiopathic SSNHL who received corticoids
[8] = day 84, SENS-401 high 43.5 mg/BID, subpopulation PTA at baseline ≥80 dB (idiopathic SSNHL, corticoids)
[9] = day 84, SENS-401 high 43.5 mg/BID, subpopulation PTA at baseline ≥90 dB (idiopathic SSNHL, corticoids)
[10] = day 84, SENS-401 high 43.5 mg/BID, subpopulation initial hearing loss ≥91 dB (ASHA Profound; idiopathic SSNHL, corticoids)
[11] = day 84, SENS-401 low 29 mg/BID (40 mg/day free base equivalent), ITT overall study population
[12] = day 84, SENS-401 low 29 mg/BID (40 mg/day free base equivalent), ITT overall study population, idiopathic SSNHL who received corticoids
[13] = day 84, SENS-401 low 29 mg/BID, subpopulation PTA at baseline ≥80 dB & initial frequency range ≤2000 Hz (idiopathic SSNHL, corticoids)
[14] = day 84, SENS-401 low 29 mg/BID, subpopulation initial frequency range ≤2000 Hz (of overall study population)
[15] = day 84, SENS-401 low 29 mg/BID, subpopulation initial hearing loss ≥91 dB (ASHA Profound; idiopathic SSNHL, corticoids)
[16] = day 84, SENS-401 low 29 mg/BID, subpopulation vertigo at baseline (idiopathic SSNHL, corticoids)

CN1C(=O)COc2c(C(=O)N[C@H]3CN4CCC3CC4)cc(Cl)cc21 [SENS-401, (R)-azasetron besylate]
ΔWRS SENS-401 vs placebo ([1]; day 28, subpopulation PTA at baseline ≥70 dB (of overall study population)): 12.9673%
ΔWRS SENS-401 vs placebo ([1]; day 28, WRS assessed at 60 dB, subpopulation vertigo at baseline): 35.5287%
ΔWRS SENS-401 vs placebo ([1]; day 28, WRS at 60 dB, overall study population): 8.8241%
ΔWRS SENS-401 vs placebo ([1]; day 84, WRS assessed at 60 dB, subpopulation vertigo at baseline): 53.1273%
change in WRS from baseline (effect vs placebo, in words) ([1]; day 84, WRS at 80 dB, subpopulation vertigo at baseline): significant beneficial effect
ΔPTA SENS-401 vs placebo ([2]; day 28, SENS-401 29 mg/BID (40 mg/day free base equivalent), subpopulation PTA at baseline ≥80 dB (idiopathic SSNHL, corticoids), in dB): −15.2188
ΔPTA SENS-401 vs placebo ([2]; day 28, SENS-401 29 mg/BID (40 mg/day free base equivalent), subpopulation PTA at baseline ≥90 dB (idiopathic SSNHL, corticoids), in dB): −13.9239
ΔPTA SENS-401 vs placebo ([2]; day 28, SENS-401 29 mg/BID, subpopulation hearing loss at baseline ≥91 dB (idiopathic SSNHL, corticoids)): −19.8922 dB
ΔPTA SENS-401 vs placebo ([2]; day 28, SENS-401 29 mg/BID, subpopulation vertigo at baseline (idiopathic SSNHL, corticoids), in dB): −14.0995
ΔPTA SENS-401 vs placebo ([2]; day 28, SENS-401 43.5 mg/BID, subpopulation hearing loss at baseline ≥91 dB (idiopathic SSNHL, corticoids), in dB): −14.8893
Mean change in PTA from baseline ([2]; day 28, SENS-401 high 43.5 mg/BID oral (60 mg/day free base equivalent) 28 days, ITT overall study population, idiopathic SSNHL who received corticoids): −41.8636 dB
Mean change in PTA from baseline [2, 3]: −54.4635 dB
ΔPTA SENS-401 vs placebo [2, 3]: −17.7765 dB
Mean change in PTA from baseline [2, 4]: −53.6800 dB
ΔPTA SENS-401 vs placebo [2, 4]: −23.2680 dB
Mean change in PTA from baseline [2, 5]: −42.0761 dB
ΔPTA SENS-401 vs placebo [2, 5]: −4.1236 dB
Mean change in PTA from baseline [2, 6]: −59.0918 dB
ΔPTA SENS-401 vs placebo [2, 6]: −21.7623 dB
ΔPTA SENS-401 vs placebo ([2]; day 84, SENS-401 29 mg/BID (40 mg/day free base equivalent), subpopulation PTA at baseline ≥80 dB (idiopathic SSNHL, corticoids), in dB): −19.4991
ΔPTA SENS-401 vs placebo ([2]; day 84, SENS-401 29 mg/BID (40 mg/day free base equivalent), subpopulation PTA at baseline ≥90 dB (idiopathic SSNHL, corticoids), in dB): −19.0242
Mean change in PTA from baseline [2, 7]: −46.3161 dB
ΔPTA SENS-401 vs placebo [2, 7]: −9.0984 dB
Mean change in PTA from baseline [2, 8]: −61.2123 dB
ΔPTA SENS-401 vs placebo [2, 8]: −25.6472 dB
Mean change in PTA from baseline [2, 9]: −57.7398 dB
ΔPTA SENS-401 vs placebo [2, 9]: −28.6788 dB
Mean change in PTA from baseline [2, 10]: −44.9102 dB
ΔPTA SENS-401 vs placebo [2, 10]: −26.2796 dB
Mean change in PTA from baseline [2, 11]: −32.4686 dB
ΔPTA SENS-401 vs placebo [2, 11]: −7.0694 dB
Mean change in PTA from baseline [2, 12]: −45.9263 dB
ΔPTA SENS-401 vs placebo [2, 12]: −8.7086 dB
Mean change in PTA from baseline [2, 13]: −61.7417 dB
ΔPTA SENS-401 vs placebo [2, 13]: −26.6903 dB
Mean change in PTA from baseline [2, 14]: −44.6900 dB
ΔPTA SENS-401 vs placebo [2, 14]: −11.6405 dB
Mean change in PTA from baseline [2, 15]: −46.6683 dB
ΔPTA SENS-401 vs placebo [2, 15]: −28.0377 dB
Mean change in PTA from baseline [2, 16]: −44.8233 dB
ΔPTA SENS-401 vs placebo [2, 16]: −21.8040 dB
